Experimental data: patent publication US11622951B2, “Alpha-aminoadipate for treatment of vision loss and restoring sight” (The Schepens Eye Research Institute, Inc., priority 2013, dated 2023)

Legend:
[1] = system: grafted retinal progenitor cells; assay: Integration of grafted EGFP+ retinal progenitor cells into pretreated wild-type host retina; type: in vivo, mouse
Procedure: (§1) Mice were anesthetized by intraperitoneal injection of ketamine (62.5 mg/kg) and xylazine (12.5 mg/kg) and transcardially perfused with phosphate buffered saline (PBS) followed by 4% paraformaldehyde in PBS. Retinal flat-mounts or transverse retinal sections (14 μm) were preblocked with PBS containing 3% bovine serum albumin (Sigma-Aldrich, St. Louis, Mo.) and 0.3% Triton X (Sigma-Aldrich) and incubated, first, with primary antibody overnight, and then with secondary antibody for 1 hour at room temperature. The following antibodies were used: Cy3-conjugated monoclonal antibody against GFAP (1:1000; Sigma), Brn-3b (1:200; Santa Cruz Biotechnology; Santa Cruz, Calif.), mouse anti-rhodopsin (1:4000; Rho1D4), chick anti-cone-opsin (1:300), and Cy-2, Cy-3 or Cy-5-conjugated secondary antibody (Jackson ImmunoResearch; West Grove, Pa.). Assessment of morphological integration were quantified by counting EGFP+ cells located outside of transplanted cell clusters in retinal whole-mounts. Statistical significance was determined by either the two tailed student t test or ANOVA.
At 2 days before transplantation, 2 μl of a solution containing either α-AA (1 μg/μl) or saline (control) was injected unilaterally into the subretinal space of recipient wild-type or Gnat1^−/− mice (>2 months old). The procedure for donor cell preparation was essentially as described by Kinouchi et al, 2003, Nat Neurosci, 6:863-868. Briefly, retinal progenitor cells were isolated from postnatal day 0 (P0) EGFP transgenic mice. […]
If transient disruption of retinal glia with α-AA promotes morphological integration of grafted retinal progenitors in vivo was next investigated. […] Thus, in the following studies, cell transplantation was performed at day 2 after α-AA pretreatment when temporal disruption of residential glial structure by α-AA was detected that effectively ameliorates the host barrier to cell integration and promotes grafted cell migration into the host retina.

[2] = system: cone photoreceptor function; assay: Flicker ERG under cone-isolation conditions in Rho-/- mice; type: in vivo, mouse; conditions: Rho-/- mice injected subretinally at 6 weeks old, 4 weeks later, vs saline contralateral eye
Procedure: Mice carrying rhodopsin deficiency (Rho^−/−) were used to determine if injection of alpha-aminoadipate (αAA) is sufficient to induce neuroregeneration from endogenous retinal progenitors, e.g., Muller cells, leading to preservation and restoration of photoreceptor cell function. Light-evoked photoreceptor responses and retinal functions in Rho^−/− mice that received αAA or saline injection were assessed using ERGS and whole cell-attached patch clamp.
To determine if αAA induces functional neuroregeneration in Rho^−/− mice, αAA was injected subretinally into the left eyes of 6 week-old Rho^−/− mice, while their contralateral eyes were injected with saline and served as controls. After a 4 week survival period to allow regeneration of new photoreceptors, mouse ERG was measured in both eyes and then performed immunohistochemistry to identify photoreceptor cells. Rho^−/− mice lack the rod photoreceptor cell component or ERG a-wave. As cones consist of ˜3% of photoreceptors in mice, it is difficult to assess cone action a-wave; therefore, flicker ERG photometry under cone-isolation conditions was used to measure cone functions. […]

[3] = system: Muller cells; conditions: wild-type mice with normal retinas, Takeda et al. 2009; cited from earlier work
[4] = system: GFAP; assay: Western blot of GFAP expression in injected retinas; type: in vivo, mouse
Procedure: To determine the effect of α-AA on retinal glial cells, mouse retinas were dissected and homogenized in lysis buffer 3% sodium dodecyl sulfate (Sigma-Aldrich), 0.3 M sucrose (Sigma-Aldrich), 1 mM orthovanadium (Sigma-Aldrich)]. Protein concentrations were determined with a BCA assay (Pierce; Rockford, Ill.). Protein (20 μg) was loaded on a 10% sodium dodecyl sulfate-polyacrylamide gel and transferred to a nitrocellulose membrane. The blot was blocked in 1% bovine serum albumin (Sigma-Aldrich) and 4% dry milk in PBS and probed with primary antibodies against GFAP (1:1000; Chemicon; Temecula, Calif.) and β-actin (Sigma-Aldrich) as loading controls. After incubation with appropriate secondary antibodies conjugated to horseradish peroxidase (Jackson Immunochemicals; West Grove, Pa.), detection was performed with Super Signal West Pico (Pierce). Retinal astrocytes and Müller glia are central to the homeostatic and metabolic support of retinal neurons; whereas, after injury these cells develop glial scar that forms critical barriers to neuron regeneration and integration by retinal progenitor cells. […] Retinal glial morphology was examined by immunolabeling for glial marker GFAP and assessed the level of GFAP expression by Western blot at day 1-7 post injection. Expression of GFAP is widely detected in the normal mouse retinas (FIG. 1a).

[5] = system: retinal glial cells (GFAP expression); assay: GFAP immunolabeling of retinal glia after subretinal injection; type: in vivo, mouse; conditions: adult wild-type mice
Procedure: as §1, with “The following antibodies were used: Cy3-conjugated monoclonal antibody against GFAP (1:1000; Sigma), Brn-3b (1:200; Santa Cruz Biotechnology; Santa Cruz, Calif.), mouse anti-rhodopsin (1:4000; Rho1D4), chick anti-cone-opsin (1:300), and Cy-2, Cy-3 or Cy-5-conjugated secondary antibody (Jackson ImmunoResearch; West Grove, Pa.).” left out
Retinal astrocytes and Müller glia are central to the homeostatic and metabolic support of retinal neurons; whereas, after injury these cells develop glial scar that forms critical barriers to neuron regeneration and integration by retinal progenitor cells. […] Retinal glial morphology was examined by immunolabeling for glial marker GFAP and assessed the level of GFAP expression by Western blot at day 1-7 post injection. Expression of GFAP is widely detected in the normal mouse retinas (FIG. 1a).

## NC(CCCC(=O)O)C(=O)O (stereo not drawn) [α-AA, alpha-aminoadipate]
[1]; transplantation performed after day 5 post treatment
  number of cells repopulated the host retina: drastically diminished
[1]; wild-type hosts, three weeks post transplantation, vs saline-treated or untreated retinas
  increase in number of engrafted cells bearing long neurites (>3 body length): 7-11 fold
[1]; wild-type hosts, transplantation day 2 after pretreatment, three weeks post transplantation, vs saline-treated or untreated retinas
  increase in the number of EGFP+ cells repopulated into the host retina: 3-5 fold
[2]
  ERG b-wave (flicker ERG): sizable b-wave
[3]
  Muller cell proliferation in the retina: can stimulate Muller cell proliferation
[4]; by day 7 post injection
  GFAP expression, Western blot quantification: returned to a control level
[4]; day 3 post injection, vs normal or saline-injected controls
  GFAP expression, Western blot quantification: significant downregulation
[5]; by day 7 post injection
  GFAP immunostaining at the injection site: reappeared at the injection site
[5]; single subretinal injection 1 μg/μl, 1-3 days post injection
  GFAP expression around the injection site (immunolabeling): effectively eliminated GFAP expression
